# Assay results published in patent US5091392A, “Substituted (quinolin-2-yl-methoxy)phenyl-acyl-sulphon-amides and -cyanamides, processes for their preparation and their use in medicaments” (Bayer Aktiengesellschaft, priority 1989, dated 1992).
# System: lipoxygenase
# Assay: lipoxygenase inhibition: release of leucotriene B4 (LTB4) from polymorphonuclear rat leucocytes (PMNL) after Ca ionophore, reverse phase HPLC
# Format: cell-based
# Details: LTB4 release from polymorphonuclear rats leucocytes (PMNL), read-out: LO inhibition IC50
# Protocol: The pharmacological activity data of the substances according to the invention are determined by the following method: As a measure of the lipoxygenase inhibition, the release of leucotriene B4 (LTB4) from polymorphonuclear rats leucocytes (PMNL) was determined after addition of substances and Ca ionophore by means of reverse phase HPLC according to Borgeat, P. et al., Proc. Nat. Acad. Sci., 76, 2148-2152 (1979). The in vivo activity of the compounds was detected using the mouse ear inflammation model according to Young, J. M. et al., J. of Investigative Dermatology, 82, 367-371 (1984).
row,IC50,SMILES
1,0.027 µM,CS(=O)(=O)NC(=O)C(c1ccc(OCc2ccc3ccccc3n2)cc1)C1CCCC1 (stereo not drawn) [Example 1]
2,0.024 µM,"N#CNC(=O)C(c1ccc(OCc2ccc3ccccc3n2)cc1)C1CCCC1 (stereo not drawn) [Example 7, N-{1-[4-(Quinolin-2-yl-methoxy)phenyl]-1-cyclopentyl}-acetyl-cyanamide]"
3,0.033 µM,"CN(C(=O)C(c1ccc(OCc2ccc3ccccc3n2)cc1)C1CCCC1)S(=O)(=O)C(F)(F)F (stereo not drawn) [Example 6, N-Methyl-N-{1-[4-(quinolin-2-yl-methoxy)phenyl]-1-cyclopentyl-acetyl}-trifluoromethanesulphonamide]"
